Tested on: type V secretion system-mediated release of the cytotoxin VacA
Format: cell-based, H. pylori

For O=C(O)[C@@H]1CSc2c(C3CC3)c(Cc3cccc4ccccc34)cc(=O)n21 [Compound C10, (3R)-8-cyclopropyl-7-(naphthalen-1-ylmethyl)-5-oxo-3,5-dihydro-2H-thiazolo[3,2-a]pyridine-3-carboxylic acid], the “type V secretion system-mediated release of VacA into cell culture supernatants” value was “did not impair”.
For COc1ccc(Cc2cc(=O)n3c(c2C2CC2)SC[C@H]3C(=O)O)c2ccccc12 [KSK85, (3R)-7-[(4-methoxynaphthalen-1-yl)methyl]-8-cyclopropyl-5-oxo-2,3-dihydro-5H-[1,3]thiazolo[3,2-a]pyridine-3-carboxylic acid], the “type V secretion system-mediated release of VacA into cell culture supernatants” value was “did not impair”.

— patent publication US20170233409A1, “TYPE IV SECRETION SYSTEM INHIBITORS” (priority 2016, published 2017)
